Test results taken from BindingDB's records for doi:10.1016/1074-5521(95)90264-3 (Smithkline Beecham Pharmaceuticals, 1995).

These molecules were tested against Peptidyl-prolyl cis-trans isomerase FKBP1A (Homo sapiens, UniProt P62942) (assay: FKBP12 Assay).
Sequence of Peptidyl-prolyl cis-trans isomerase FKBP1A (P62942 whole entry): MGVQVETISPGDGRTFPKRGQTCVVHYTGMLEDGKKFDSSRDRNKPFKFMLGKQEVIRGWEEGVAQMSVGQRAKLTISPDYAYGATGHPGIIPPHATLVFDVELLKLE
Text: FKBP12 assay using rapamycin analogs.
For `CO[C@@H]1C[C@H](C[C@@H](C)[C@@H]2CC(=O)[C@H](C)/C=C(\C)[C@@H](O)[C@@H](OC)C(=O)[C@H](C)C[C@H](C)/C=C/C=C/C=C(\C)[C@H](c3ccco3)C[C@@H]3CC[C@@H](C)[C@@](O)(O3)C(=O)C(=O)N3CCCC[C@H]3C(=O)O2)CC[C@H]1O` [Rapamycin C-7, analog 10a], the EC50 was 20 nM and the Ki was 3 nM.
`CO[C@@H]1C[C@H](C[C@@H](C)[C@@H]2CC(=O)[C@H](C)/C=C(\C)[C@@H](O)[C@@H](OC)C(=O)[C@H](C)C[C@H](C)/C=C/C=C/C=C(\C)[C@H](OCc3cccc([N+](=O)[O-])c3)C[C@@H]3CC[C@@H](C)[C@@](O)(O3)C(=O)C(=O)N3CCCC[C@H]3C(=O)O2)CC[C@H]1O` [Rapamycin C-7, analog 15a] was tested, and the EC50 was 50 nM and the Ki was 7 nM.
`CCO[C@@H]1C[C@@H]2CC[C@@H](C)[C@@](O)(O2)C(=O)C(=O)N2CCCC[C@H]2C(=O)O[C@H]([C@H](C)C[C@@H]2CC[C@@H](O)[C@H](OC)C2)CC(=O)[C@H](C)/C=C(\C)[C@@H](O)[C@@H](OC)C(=O)[C@H](C)C[C@H](C)/C=C/C=C/C=C/1C` [Rapamycin C-7, analog 5a] gave an EC50 of 10 nM and a Ki of 3.5 nM.
`CO[C@@H]1C[C@H](C[C@@H](C)[C@@H]2CC(=O)[C@H](C)/C=C(\C)[C@@H](O)[C@@H](OC)C(=O)[C@H](C)C[C@H](C)/C=C/C=C/C=C(\C)[C@H](OCc3ccc(N=[N+]=[N-])c(I)c3)C[C@@H]3CC[C@@H](C)[C@@](O)(O3)C(=O)C(=O)N3CCCC[C@H]3C(=O)O2)CC[C@H]1O` [Rapamycin C-7, analog 17a] showed an EC50 of 90 nM and a Ki of 30 nM.
`CO[C@@H]1C[C@H](C[C@@H](C)[C@@H]2CC(=O)[C@H](C)/C=C(\C)[C@@H](O)[C@@H](OC)C(=O)[C@H](C)C[C@H](C)C=CC=CC=C(C)C(=O)C[C@@H]3CC[C@@H](C)[C@@](O)(O3)C(=O)C(=O)N3CCCC[C@H]3C(=O)O2)CC[C@H]1O` [Rapamycin C-7, analog 13] showed an EC50 of 300 nM and a Ki of 29 nM.
In the case of `CO[C@@H]1C[C@H](C[C@@H](C)[C@@H]2CC(=O)[C@H](C)/C=C(\C)[C@@H](O)[C@@H](OC)C(=O)[C@H](C)C[C@H](C)/C=C/C=C/C=C(\C)[C@H](OCc3ccc(Cl)cc3)C[C@@H]3CC[C@@H](C)[C@@](O)(O3)C(=O)C(=O)N3CCCC[C@H]3C(=O)O2)CC[C@H]1O` [Rapamycin C-7, analog 16a], the EC50 is reported as 45 nM and the Ki is reported as 1 nM.
`CO[C@@H]1C[C@H](C[C@@H](C)[C@@H]2CC(=O)[C@H](C)/C=C(\C)[C@@H](O)[C@@H](OC)C(=O)[C@H](C)C[C@H](C)/C=C/C=C/C=C(\C)[C@H](c3ccc[nH]3)C[C@@H]3CC[C@@H](C)[C@@](O)(O3)C(=O)C(=O)N3CCCC[C@H]3C(=O)O2)CC[C@H]1O` [Rapamycin C-7, analog 11a] showed an EC50 of 11 nM and a Ki of 10 nM.
Molecule `COC(=O)N[C@@H]1C[C@@H]2CC[C@@H](C)[C@@](O)(O2)C(=O)C(=O)N2CCCC[C@H]2C(=O)O[C@H]([C@H](C)C[C@@H]2CC[C@@H](O)[C@H](OC)C2)CC(=O)[C@H](C)/C=C(\C)[C@@H](O)[C@@H](OC)C(=O)[C@H](C)C[C@H](C)/C=C/C=C/C=C/1C` [Rapamycin C-7, analog 7a] has an EC50 greater than 10000 nM and a Ki of 4.5 nM.
`CO[C@@H]1C[C@H](C[C@@H](C)[C@@H]2CC(=O)[C@H](C)/C=C(\C)[C@@H](O)[C@@H](OC)C(=O)[C@H](C)C[C@H](C)/C=C/C=C/C=C(\C)[C@@H](c3ccc[nH]3)C[C@@H]3CC[C@@H](C)[C@@](O)(O3)C(=O)C(=O)N3CCCC[C@H]3C(=O)O2)CC[C@H]1O` [Rapamycin C-7, analog 11b] was tested, and the EC50 was 70 nM and the Ki was 1.5 nM.
`CO[C@@H]1C[C@H](C[C@@H](C)[C@@H]2CC(=O)[C@H](C)/C=C(\C)[C@@H](O)[C@@H](OC)C(=O)[C@H](C)C[C@H](C)/C=C/C=C/C=C(\C)[C@@H](SC)C[C@@H]3CC[C@@H](C)[C@@](O)(O3)C(=O)C(=O)N3CCCC[C@H]3C(=O)O2)CC[C@H]1O` [Rapamycin C-7, analog 6b] showed an EC50 of 4 nM and a Ki of 1 nM.
Molecule `CO[C@@H]1C[C@H](C[C@@H](C)[C@@H]2CC(=O)[C@H](C)/C=C(\C)[C@@H](O)[C@@H](OC)C(=O)[C@H](C)C[C@H](C)/C=C/C=C/C=C(\C)[C@H](SC)C[C@@H]3CC[C@@H](C)[C@@](O)(O3)C(=O)C(=O)N3CCCC[C@H]3C(=O)O2)CC[C@H]1O` [Rapamycin C-7, analog 6a] has an EC50 of 4 nM and a Ki of 1 nM.
`COc1ccc([C@H]2C[C@@H]3CC[C@@H](C)[C@@](O)(O3)C(=O)C(=O)N3CCCC[C@H]3C(=O)O[C@H]([C@H](C)C[C@@H]3CC[C@@H](O)[C@H](OC)C3)CC(=O)[C@H](C)/C=C(\C)[C@@H](O)[C@@H](OC)C(=O)[C@H](C)C[C@H](C)/C=C/C=C/C=C/2C)c(OC)c1` [Rapamycin C-7, analog 8b] was tested, and the EC50 was greater than 1000 nM and the Ki was 38 nM.
`CO[C@@H]1C[C@H](C[C@@H](C)[C@@H]2CC(=O)[C@H](C)/C=C(\C)[C@@H](O)[C@@H](OC)C(=O)[C@H](C)C[C@H](C)/C=C/C=C/C=C(\C)CC[C@@H]3CC[C@@H](C)[C@@](O)(O3)C(=O)C(=O)N3CCCC[C@H]3C(=O)O2)CC[C@H]1O` [Rapamycin C-7, analog 12] showed an EC50 of 2 nM and a Ki of 1 nM.
In the case of `CO[C@@H]1C[C@H](C[C@@H](C)[C@@H]2CC(=O)[C@H](C)/C=C(\C)[C@@H](O)[C@@H](OC)C(=O)[C@H](C)C[C@H](C)/C=C/C=C/C=C(\C)[C@H](OCc3ccccc3)C[C@@H]3CC[C@@H](C)[C@@](O)(O3)C(=O)C(=O)N3CCCC[C@H]3C(=O)O2)CC[C@H]1O` [Rapamycin C-7, analog 14a], the EC50 is reported as 6 nM and the Ki is reported as 5 nM.
`COC(=O)N[C@H]1C[C@@H]2CC[C@@H](C)[C@@](O)(O2)C(=O)C(=O)N2CCCC[C@H]2C(=O)O[C@H]([C@H](C)C[C@@H]2CC[C@@H](O)[C@H](OC)C2)CC(=O)[C@H](C)/C=C(\C)[C@@H](O)[C@@H](OC)C(=O)[C@H](C)C[C@H](C)/C=C/C=C/C=C/1C` [Rapamycin C-7, analog 7b] was tested, and the EC50 was 2500 nM and the Ki was 3.7 nM.
Molecule `COc1cc(OC)c([C@H]2C[C@@H]3CC[C@@H](C)[C@@](O)(O3)C(=O)C(=O)N3CCCC[C@H]3C(=O)O[C@H]([C@H](C)C[C@@H]3CC[C@@H](O)[C@H](OC)C3)CC(=O)[C@H](C)/C=C(\C)[C@@H](O)[C@@H](OC)C(=O)[C@H](C)C[C@H](C)/C=C/C=C/C=C/2C)c(OC)c1` [Rapamycin C-7, analog 9] has an EC50 greater than 1000 nM and a Ki of 7 nM.
For `CCO[C@H]1C[C@@H]2CC[C@@H](C)[C@@](O)(O2)C(=O)C(=O)N2CCCC[C@H]2C(=O)O[C@H]([C@H](C)C[C@@H]2CC[C@@H](O)[C@H](OC)C2)CC(=O)[C@H](C)/C=C(\C)[C@@H](O)[C@@H](OC)C(=O)[C@H](C)C[C@H](C)/C=C/C=C/C=C/1C` [Rapamycin C-7, analog 5b], the EC50 was 200 nM and the Ki was 4 nM.
`COc1ccc([C@@H]2C[C@@H]3CC[C@@H](C)[C@@](O)(O3)C(=O)C(=O)N3CCCC[C@H]3C(=O)O[C@H]([C@H](C)C[C@@H]3CC[C@@H](O)[C@H](OC)C3)CC(=O)[C@H](C)/C=C(\C)[C@@H](O)[C@@H](OC)C(=O)[C@H](C)C[C@H](C)/C=C/C=C/C=C/2C)c(OC)c1` [Rapamycin C-7, analog 8a] was tested, and the EC50 was 1000 nM and the Ki was 9 nM.
`CO[C@@H]1C[C@H](C[C@@H](C)[C@@H]2CC(=O)[C@H](C)/C=C(\C)[C@@H](O)[C@@H](OC)C(=O)[C@H](C)C[C@H](C)/C=C/C=C/C=C(\C)[C@@H](c3ccco3)C[C@@H]3CC[C@@H](C)[C@@](O)(O3)C(=O)C(=O)N3CCCC[C@H]3C(=O)O2)CC[C@H]1O` [Rapamycin C-7, analog 10b] was tested, and the EC50 was 20 nM and the Ki was 6 nM.
